In ChEMBL document CHEMBL3414456, “Pentacyclic triterpene derivatives possessing polyhydroxyl ring A inhibit gram-positive bacteria growth by regulating metabolism and virulence genes expression” (2015):
≈ marks a conversion by molar mass, not a printed value. Blank lines part the entries; values can stand above or below the compound they belong to. Calls of active or inactive are those of the source. The rule behind the calls is not given here.

How the values were obtained:
[1] = system: Staphylococcus aureus; experiment: Antibacterial activity against Staphylococcus aureus after 24 hrs; format: functional
[2] = system: Staphylococcus aureus; experiment: Antibacterial activity against Staphylococcus aureus ATCC 25923 assessed as growth inhibition at 100 uM after 24 hrs by turbidimetric analysis; format: functional
[3] = system: Streptomyces scabiei; experiment: Antibacterial activity against Streptomyces scabiei CGMCC4.7610246 assessed as growth inhibition at 100 uM after 36 hrs by turbidimetric analysis; format: functional, organism-based
[4] = system: Bacillus spizizenii; experiment: Antibacterial activity against Bacillus subtilis ATCC 6633 assessed as growth inhibition at 100 uM after 24 hrs by turbidimetric analysis; format: functional
[5] = system: Bacillus spizizenii; experiment: Antibacterial activity against Bacillus subtilis ATCC 6633 assessed as growth inhibition after 2 to 24 hrs; format: functional, organism-based
[6] = system: Staphylococcus aureus; experiment: Antibacterial activity against […] Staphylococcus aureus ATCC 29213 by serial microplate method; format: functional
[7] = system: Escherichia coli; experiment: Antibacterial activity against Escherichia coli ATCC 25922 by serial microplate method; format: functional
[8] = system: Staphylococcus aureus; experiment: Antibacterial activity against Staphylococcus aureus ATCC 25923 assessed as growth inhibition after 24 hrs by turbidimetric analysis; format: functional; conditions: ATCC 25923, 24 h
[9] = system: Streptomyces scabiei; experiment: Downregulation of murX gene expression in Streptomyces scabiei CGMCC4.7610246 at 0.5 x MIC by Q-RT-PCR analysis relative to control; format: functional, organism-based
[10] = system: Streptomyces scabiei; experiment: Downregulation of txtC gene expression in Streptomyces scabiei CGMCC4.7610246 at 0.5 x MIC by Q-RT-PCR analysis relative to control; format: functional, organism-based
[11] = system: Bacillus spizizenii; experiment: Antibacterial activity against Bacillus subtilis ATCC 6633 assessed as growth inhibition after 24 hrs by turbidimetric analysis; format: functional; conditions: ATCC 6633, 24 h
[12] = system: Streptomyces scabiei; experiment: Downregulation of tomA gene expression in Streptomyces scabiei CGMCC4.7610246 at 0.5 x MIC by Q-RT-PCR analysis relative to control; format: functional, organism-based
[13] = system: Streptomyces scabiei; experiment: Antibacterial activity against Streptomyces scabiei CGMCC4.7610246 assessed as growth inhibition after 4 to 36 hrs; format: functional, organism-based
[14] = system: Streptomyces scabiei; experiment: Downregulation of necl gene expression in Streptomyces scabiei CGMCC4.7610246 at 0.5 x MIC by Q-RT-PCR analysis relative to control; format: functional, organism-based
[15] = system: Streptomyces scabiei; experiment: Downregulation of txtA gene expression in Streptomyces scabiei CGMCC4.7610246 at 0.5 x MIC by Q-RT-PCR analysis relative to control; format: functional, organism-based
[16] = system: Streptomyces scabiei; experiment: Antibacterial activity against Streptomyces scabiei CGMCC4.7610246 assessed as growth inhibition after 36 hrs by turbidimetric analysis; format: functional; conditions: CGMCC4.7610246, 36 h
[17] = system: Streptomyces scabiei; experiment: Antibacterial activity against Streptomyces scabiei CGMCC4.7610246 assessed as killing time at 0.5 x MIC to 4 x MIC; format: functional
[18] = system: Streptomyces scabiei; experiment: Downregulation of p450 gene expression in Streptomyces scabiei CGMCC4.7610246 at 0.5 x MIC by Q-RT-PCR analysis relative to control; format: functional, organism-based
[19] = system: Microsporum canis; experiment: Antifungal activity against Microsporum canis by serial microplate method; format: functional
[20] = system: Meyerozyma guilliermondii; experiment: Antifungal activity against Candida guilliermondii by serial microplate method; format: functional
[21] = system: Staphylococcus aureus; experiment: Antibacterial activity against Staphylococcus aureus; format: functional
[22] = system: Bacillus subtilis; experiment: Antibacterial activity against Bacillus subtilis; format: functional
[23] = system: Staphylococcus aureus; experiment: Upregulation of hla gene expression in Staphylococcus aureus ATCC 25923 at 0.5 x MIC by Q-RT-PCR analysis relative to control; format: functional, organism-based
[24] = system: Staphylococcus aureus; experiment: Upregulation of fmhB gene expression in Staphylococcus aureus ATCC 25923 at 0.5 x MIC by Q-RT-PCR analysis relative to control; format: functional, organism-based
[25] = system: Staphylococcus aureus; experiment: Upregulation of seaR gene expression in Staphylococcus aureus ATCC 25923 at 0.5 x MIC by Q-RT-PCR analysis relative to control; format: functional, organism-based

SMILES: C[C@@H](O)[C@H]1C(=O)N2C(C(=O)O)=C(SCCNC=N)C[C@H]12 [IMIPENEM ANHYDROUS]
inhibition zone (IZ) [1]: 33 mm

SMILES: C[C@H]1[C@H](C)C=C[C@]2(C(=O)O)CC[C@]3(C)C(=CC[C@H]4[C@]5(C)[C@H]([C@H](O)C[C@]43C)C(C)(C)[C@@H](O)[C@H](O)[C@@H]5O)[C@H]12
inhibition zone (IZ) [1]: 24 mm

SMILES: CC1(C)CC[C@]2(C(=O)O)CC[C@]3(C)C(=CC[C@@H]4[C@@]5(C)[C@H]6O[C@H]6[C@H](O)C(C)(C)[C@@H]5CC[C@]43C)[C@@H]2C1
growth inhibition (GI) [2]: Active
growth inhibition (GI) [3]: Active
growth inhibition (GI) [4]: Active
growth inhibition (GI) [5]: Dose-dependent effect

SMILES: CC1(C)[C@@H](O)C[C@H](O)[C@]2(C)[C@H]3CC=C4[C@@H]5C[C@](C)(C(=O)O)CC[C@]5(C(=O)O)CC[C@@]4(C)[C@]3(C)CC[C@@H]12
MIC [6]: 125 µg/mL (≈ 249 µM)
MIC [7]: 16 µg/mL (≈ 31.8 µM)

MIC [8]: ≥ 100 µM
MIC [11]: 64 µM (≈ 32.2 µg/mL)
MIC [16]: 4 µM (≈ 2.01 µg/mL)
SMILES: COC(=O)[C@]12CCC(C)(C)C[C@H]1C1=CC[C@@H]3[C@@]4(C)[C@@H](O)[C@H](O)[C@H](O)C(C)(C)[C@@H]4CC[C@@]3(C)[C@]1(C)CC2
inhibition of growth at 100 µM ([2]; ATCC 25923, 24 h, read-out: GI): > 95%
Activity [9]: Active
Activity [10]: Active
inhibition of growth at 100 µM ([4]; ATCC 6633, 24 h, read-out: GI): > 95%
Activity [12]: Active
growth inhibition (GI) [13]: Dose-dependent effect
Activity [14]: Active
Activity [15]: Active
Time [17]: >24 h
Activity [18]: Active

SMILES: C[C@H]1[C@H](C)CC[C@]2(C(=O)O)CC[C@]3(C)C(=CC[C@@H]4[C@@]5(C)C[C@@H](O)[C@H](O)C(C)(C)[C@@H]5CC[C@]43C)[C@H]12 [COROSOLIC ACID]
MIC [6]: 7 µg/mL (≈ 14.8 µM)
MIC [19]: 8 µg/mL (≈ 16.9 µM)
MIC [20]: 11.7 µg/mL (≈ 24.8 µM)

SMILES: C[C@@]1(C(=O)O)CC[C@]2(C(=O)O)CC[C@]3(C)C(=CC[C@@H]4[C@@]5(C)[C@@H](O)C[C@H](O)[C@](C)(CO)[C@@H]5CC[C@]43C)[C@@H]2C1
MIC [6]: 63 µg/mL (≈ 121 µM)
MIC [7]: 16 µg/mL (≈ 30.8 µM)

MIC [21]: 31.3 µg/mL (≈ 50.4 µM)
MIC [22]: 15.6 µg/mL (≈ 25.1 µM)
SMILES: CC1OC(OC[C@]2(C)[C@@H](O)[C@@H](O)[C@@H](O)[C@]3(C)[C@H]4CC=C5[C@@H]6[C@@H](C)[C@H](C)CC[C@]6(C)CC[C@@]5(C)[C@]4(C)CC[C@@H]23)C(O)C(O)C1O (stereo not given in full)

SMILES: CC1(C)CC[C@]2(C(=O)O)CC[C@]3(C)C(=CC[C@@H]4[C@@]5(C)CC[C@H](O)C(C)(C)[C@@H]5CC[C@]43C)[C@@H]2C1
growth inhibition (GI) [2]: Active
Activity [9]: Active
growth inhibition (GI) [3]: Active
Activity [23]: Active
Activity [24]: Active
Activity [10]: Active
Activity [25]: Active
growth inhibition (GI) [4]: Active
Activity [12]: Active
Activity [14]: Active
Activity [15]: Active
Activity [18]: inactive
